# Reference: article PMC12677699, “Utilizing Proteolytic‐Resistant Nano‐Short Peptide Based on Naphthyl Tail‐Anchored to Combat Bacterial Infections” (Advanced Science, 2025)
# Non-standard residues stand in square brackets, D forms with d. Residues, ends and D or L forms follow the SMILES beside them. ξ: configuration not given here. *: point of attachment. 1Naphthoyl = O=C(c1cccc2ccccc12)*; Palmitoyl = CCCCCCCCCCCCCCCC(=O)*; Myristoyl = CCCCCCCCCCCCCC(=O)*; Lauroyl = CCCCCCCCCCCC(=O)*; Decanoyl = CCCCCCCCCC(=O)*; ξAhp(2) = CCCCCC(N)C(=O)O
# What was measured:
# P. aeruginosa PAO1 = type: cell-based, Pseudomonas aeruginosa
# Description: (§1) The MIC values of the nano‐short peptides were determined according to standard protocols.^[ [63] ^] Bacterial strains were revived from cryopreservation and cultured in Mueller–Hinton broth (MHB) to logarithmic growth phase, then diluted to a final density of 0.5–1 × 10⁶ CFU mL^−1. Serial dilutions of the nano‐short peptides were prepared in 0.2% bovine serum albumin (BSA) using a 96‐well plate format. Equal volumes of peptide solutions and bacterial suspensions were combined and incubated at 37 °C for 20–22 h. Bacterial growth was assessed by measuring absorbance at 492 nm, with MHB alone (negative control) and untreated bacterial suspension (positive control) included for reference.
# E. faecalis 29212 = type: cell-based, Enterococcus faecalis
# Description: as §1
# S. aureus 25923 = type: cell-based, Staphylococcus aureus
# Description: as §1
# S. aureus 29213 = type: cell-based, Staphylococcus aureus
# Description: as §1
# S. epidermidis 12228 = type: cell-based, Staphylococcus epidermidis
# Description: as §1
# MRSA 43300 = type: cell-based, Methicillin-Resistant Staphylococcus aureus
# Description: as §1
# S. pullorum C7913 = type: cell-based
# Description: as §1
# P. aeruginosa 27853 = type: cell-based, Pseudomonas aeruginosa
# Description: as §1
# S. typhimurium 14028 = type: cell-based, Salmonella typhimurium
# Description: as §1
# S. typhimurium 7731 = type: cell-based, Salmonella typhimurium
# Description: as §1
# E. coli 078 = type: cell-based, Escherichia coli
# Description: as §1
# E. coli 25922 = type: cell-based, Escherichia coli
# Description: as §1
# E. coli UB1005 = type: cell-based, Escherichia coli
# Description: as §1
# A. baumannii AB1901 = assay: MIC against clinical strain; type: cell-based; details: Acinetobacter baumannii, AB1901, read-out: MIC, A. baumannii AB1901
# Description: as §1
# P. aeruginosa 25349 = assay: MIC against clinical strain; type: cell-based; details: Pseudomonas aeruginosa, 25349, read-out: MIC, P. aeruginosa 25349
# Description: as §1
# A. baumannii AB1902 = assay: MIC against clinical strain; type: cell-based; details: Acinetobacter baumannii, AB1902, read-out: MIC, A. baumannii AB1902
# Description: as §1
# S. aureus 11011 = assay: MIC against clinical strain; type: cell-based; details: Staphylococcus aureus, 11011, read-out: MIC, S. aureus 11011
# Description: as §1
SMILES,"MIC, P. aeruginosa PAO1 (P. aeruginosa PAO1)","MIC, E. faecalis 29212 (E. faecalis 29212)","MIC, S. aureus 25923 (S. aureus 25923)","MIC, S. aureus 29213 (S. aureus 29213)","MIC, S. epidermidis 12228 (S. epidermidis 12228)","MIC, MRSA 43300 (MRSA 43300)","MIC, S. pullorum C7913 (S. pullorum C7913)","MIC, P. aeruginosa 27853 (P. aeruginosa 27853)","MIC, S. typhimurium 14028 (S. typhimurium 14028)","MIC, S. typhimurium 7731 (S. typhimurium 7731)","MIC, E. coli 078 (E. coli 078)","MIC, E. coli 25922 (E. coli 25922)","MIC, E. coli UB1005 (E. coli UB1005)",MIC (A. baumannii AB1901),MIC (P. aeruginosa 25349),MIC (A. baumannii AB1902),MIC (S. aureus 11011)
C[C@H](N)C(=O)N[C@@H](C)C(=O)N[C@@H](C)C(=O)N[C@@H](C)C(=O)N[C@@H](C)C(=O)N[C@H](CCCNC(=N)N)C(=O)N[C@@H](CCCNC(=N)N)C(=O)N[C@@H](CCCNC(=N)N)C(=O)N1CCC[C@H]1C(=O)O [Peptide A5] (H-AAAAA[dR]RRP-OH),256 µM,256 µM,256 µM,256 µM,256 µM,256 µM,256 µM,256 µM,256 µM,256 µM,256 µM,256 µM,256 µM,–,–,–,–
CC(C)(O/N=C(\C(=O)N[C@@H]1C(=O)N2C(C(=O)[O-])=C(C[n+]3ccccc3)CS[C@H]12)c1csc(N)n1)C(=O)O [Ceftazidime],–,–,–,–,–,–,–,–,–,–,–,–,–,8 µM,32 µM,128 µM,128 µM
CC1COc2c(N3CCN(C)CC3)c(F)cc3c(=O)c(C(=O)O)cn1c23 (stereo not drawn) [Ofloxacin],–,–,–,–,–,–,–,–,–,–,–,–,–,1 µM,2 µM,128 µM,128 µM
CC1(C)S[C@@H]2[C@H](NC(=O)Cc3ccccc3)C(=O)N2[C@H]1C(=O)O [Penicillin sodium],–,–,–,–,–,–,–,–,–,–,–,–,–,128 µM,128 µM,128 µM,128 µM
CN[C@H](CC(C)C)C(=O)N[C@H]1C(=O)N[C@@H](CC(N)=O)C(=O)N[C@H]2C(=O)N[C@H]3C(=O)N[C@H](C(=O)N[C@H](C(=O)O)c4cc(O)cc(O)c4-c4cc3ccc4O)[C@H](O)c3ccc(c(Cl)c3)Oc3cc2cc(c3O[C@@H]2O[C@H](CO)[C@@H](O)[C@H](O)[C@H]2O[C@H]2C[C@](C)(N)[C@H](O)[C@H](C)O2)Oc2ccc(cc2Cl)[C@H]1O [Vancomycin],–,–,–,–,–,–,–,–,–,–,–,–,–,1 µM,128 µM,128 µM,128 µM
C[C@H](N)C(=O)N[C@@H](C)C(=O)N[C@@H](C)C(=O)N[C@@H](C)C(=O)N[C@@H](C)C(=O)N[C@@H](C)C(=O)N[C@H](CCCNC(=N)N)C(=O)N[C@@H](CCCNC(=N)N)C(=O)N[C@@H](CCCNC(=N)N)C(=O)N1CCC[C@H]1C(=O)O [Peptide A6] (H-AAAAAA[dR]RRP-OH),256 µM,256 µM,256 µM,256 µM,256 µM,256 µM,256 µM,256 µM,256 µM,256 µM,256 µM,256 µM,256 µM,–,–,–,–
NC[C@H]1O[C@H](O[C@H]2[C@H](O)[C@@H](O[C@H]3O[C@H](CO)[C@@H](O)[C@H](N)[C@H]3O)[C@H](N)C[C@@H]2N)[C@H](O)[C@@H](O)[C@@H]1O [Kanamycin],–,–,–,–,–,–,–,–,–,–,–,–,–,128 µM,128 µM,128 µM,128 µM
C[C@H](N)C(=O)N[C@@H](C)C(=O)N[C@@H](C)C(=O)N[C@@H](C)C(=O)N[C@H](CCCNC(=N)N)C(=O)N[C@@H](CCCNC(=N)N)C(=O)N[C@@H](CCCNC(=N)N)C(=O)N1CCC[C@H]1C(=O)O [Peptide A4] (H-AAAA[dR]RRP-OH),256 µM,256 µM,256 µM,256 µM,256 µM,256 µM,256 µM,256 µM,256 µM,256 µM,256 µM,256 µM,256 µM,–,–,–,–

# The next lines start with results.
"MIC, P. aeruginosa PAO1 (P. aeruginosa PAO1)","MIC, E. faecalis 29212 (E. faecalis 29212)","MIC, S. aureus 25923 (S. aureus 25923)","MIC, S. aureus 29213 (S. aureus 29213)","MIC, S. epidermidis 12228 (S. epidermidis 12228)","MIC, MRSA 43300 (MRSA 43300)","MIC, S. pullorum C7913 (S. pullorum C7913)","MIC, P. aeruginosa 27853 (P. aeruginosa 27853)","MIC, S. typhimurium 14028 (S. typhimurium 14028)","MIC, S. typhimurium 7731 (S. typhimurium 7731)","MIC, E. coli 078 (E. coli 078)","MIC, E. coli 25922 (E. coli 25922)","MIC, E. coli UB1005 (E. coli UB1005)",SMILES,MIC (A. baumannii AB1901),MIC (P. aeruginosa 25349),MIC (A. baumannii AB1902),MIC (S. aureus 11011)
32 µM,32 µM,32 µM,32 µM,32 µM,32 µM,256 µM,–,–,–,–,–,–,CCCCCCCCCCCCCCCC(=O)N[C@H](CCCNC(=N)N)C(=O)N[C@@H](CCCNC(=N)N)C(=O)N[C@@H](CCCNC(=N)N)C(=O)N1CCC[C@H]1C(=O)O [Peptide C16] (Palmitoyl-[dR]RRP-OH),–,–,–,–
256 µM,256 µM,256 µM,256 µM,256 µM,256 µM,256 µM,256 µM,256 µM,256 µM,256 µM,256 µM,256 µM,N=C(N)NCCC[C@H](NC(=O)c1cccc2ccccc12)C(=O)N[C@H](CCCNC(=N)N)C(=O)N[C@@H](CCCNC(=N)N)C(=O)N1CCC[C@H]1C(=O)O [Nap] (1Naphthoyl-R[dR]RP-OH),–,–,–,–
32 µM,32 µM,32 µM,32 µM,32 µM,16 µM,64 µM,64 µM,128 µM,64 µM,64 µM,64 µM,128 µM,CCCCCCCCCCCCCC(=O)N[C@H](CCCNC(=N)N)C(=O)N[C@@H](CCCNC(=N)N)C(=O)N[C@@H](CCCNC(=N)N)C(=O)N1CCC[C@H]1C(=O)O [Peptide C14] (Myristoyl-[dR]RRP-OH),–,–,–,–
256 µM,256 µM,256 µM,256 µM,256 µM,256 µM,256 µM,256 µM,256 µM,256 µM,256 µM,256 µM,256 µM,C[C@H](N)C(=O)N[C@@H](C)C(=O)N[C@@H](C)C(=O)N[C@H](CCCNC(=N)N)C(=O)N[C@@H](CCCNC(=N)N)C(=O)N[C@@H](CCCNC(=N)N)C(=O)N1CCC[C@H]1C(=O)O [Peptide A3] (H-AAA[dR]RRP-OH),–,–,–,–
256 µM,256 µM,256 µM,256 µM,128 µM,128 µM,256 µM,256 µM,256 µM,256 µM,256 µM,256 µM,256 µM,CCCCCCCCCC(=O)N[C@H](CCCNC(=N)N)C(=O)N[C@@H](CCCNC(=N)N)C(=O)N[C@@H](CCCNC(=N)N)C(=O)N1CCC[C@H]1C(=O)O [Peptide C10] (Decanoyl-[dR]RRP-OH),–,–,–,–
64 µM,64 µM,64 µM,64 µM,64 µM,32 µM,128 µM,128 µM,128 µM,128 µM,128 µM,128 µM,256 µM,CCCCCCCCCCCC(=O)N[C@H](CCCNC(=N)N)C(=O)N[C@@H](CCCNC(=N)N)C(=O)N[C@@H](CCCNC(=N)N)C(=O)N1CCC[C@H]1C(=O)O [Peptide C12] (Lauroyl-[dR]RRP-OH),–,–,–,–
256 µM,256 µM,256 µM,256 µM,256 µM,256 µM,256 µM,256 µM,256 µM,256 µM,256 µM,256 µM,256 µM,CCCCCC(N)C(=O)NC(CCCCC)C(=O)NC(CCCCC)C(=O)N[C@H](CCCNC(=N)N)C(=O)N[C@@H](CCCNC(=N)N)C(=O)N[C@@H](CCCNC(=N)N)C(=O)N1CCC[C@H]1C(=O)O (stereo partly drawn) [Peptide B3] (H-[ξAhp(2)][ξAhp(2)][ξAhp(2)][dR]RRP-OH; N-terminus assumed),–,–,–,–
